Experiments:
HepG2 cells = test: Metabolic activity assay (cytotoxicity) in HepG2 cells; details: 24 h
Experimental: HepG2 cells (1×10^4 cells/well) were treated for 24 h with the appropriate concentrations of the compounds of interest or the corresponding vehicle (control cells), in triplicates in 96-well plates. The metabolic activities were determined using the CellTiter 96 Aqueous One Solution Cell Proliferation Assay (Promega, WI/USA), according to the manufacturer instructions.

SH-SY5Y cells = test: Cell viability assay (MTS) in SH-SY5Y cells; details: 48 h
Experimental: Prior to cell treatments, complete medium was replaced with reduced-serum medium (i.e., with 2% fetal bovine serum). (±)-N-((1-benzylpiperidin-3-yl)methyl)-N-(2-methoxyethyl)naphthalene-2-sulfonamide hydrochloride was prepared as a stock solution of 10 mM in DMSO and was used at concentrations of 1 μM to 100 μM.
SH—SY5Y cells were seeded in 96-well plates (2×10^4/well) and assessed in the MTS ([3-(4,5-dimethylthiazol-2-yl)-5-(3-carboxymethoxyphenyl)-2-(4-sulfophenyl)-2H-tetrazolium, inner salt) assay for their response to treatments with (±)-N-((1-benzylpiperidin-3-yl)methyl)-N-(2-methoxyethyl)naphthalene-2-sulfonamide hydrochloride. The cells were treated as described above, and cell viability was assessed after 48 h using the CellTiter 96 Aqueous One Solution Cell Proliferation Assay (Promega, Madison, WI, USA), according to the manufacturer instructions. Absorbance was measured with an automatic microplate reader (Tecan Safire2, Switzerland) at a wavelength of 492 nm. The data are presented as percentages of the control (DMSO).

[1] = test system: SH-SY5Y cells treated with Aβ(1-42); test: Neuroprotective effect against Aβ(1-42) cytotoxicity, propidium iodide flow cytometry; type: cell-based, human; details: 5 μM Aβ(1-42), 48 h
Experimental: SH—SY5Y cells were seeded into a 24-well culture plate (1.2×10^5/well) and next day, treated as described above. After 48 h treatment, cells were washed with pre-warmed PBS and further stained with PI solution (30 μM) for 15 min at 37° C. Cells were then analyzed for cytotoxicity by flow cytometry on FACS Calibur (BD Bioscience, San Jose, CA, USA). The percentage of PI positive cells (PI^pos) was evaluated using FlowJo software (Ashland, OR, USA) and results are presented as a relative fold increase of PI^pos corresponding vehicle treatment (DMSO control).

[2] = Metabolic stability in cryopreserved hepatocytes; type: in vitro ADME; details: both sexes, pH 7.3, human hepatocytes
Experimental: Cryopreserved hepatocytes (mixed gender and pool of 10 or more) were thawed, washed, and resuspended in Krebs-Heinslet buffer (pH 7.3). […] The reaction was stopped by adding acetonitrile into the incubation mixture. Samples were then mixed, transferred completely to another 96-well plate, and centrifuged. Supernatants were used for HPLC-MS/MS analysis. As reference substances, four compounds were tested in each assay. Propranolol is relatively stable, whereas flurazepam, naloxone and 7-hydroxy-4-trifluoromethylcoumarin (HFC) are readily metabolized in human hepatocytes. In the HPLC-MS/MS analysis peak areas corresponding to the test compounds were recorded. Metabolic stability, expressed as percentage of the parent compound remaining, was calculated by comparing the peak area of the compound at the time point relative to that at time 0. The half-life (t1/2) was estimated from the slope of the initial linear range of the logarithmic curve of the compound remaining (%) versus time, assuming first order kinetics. The apparent intrinsic clearance (Clint in μL/min/million cells) was calculated from the half-life according to the following formula:
Clint=0.693/(t1/2×million cells/μL) (5).

Plasma stability = type: in vitro ADME; details: human, 37° C., 2 h incubation, read-out: In vitro half-life in human plasma
Experimental: Propoxycaine and propantheline were tested as reference compounds simultaneously in each assay. The incubation was performed in a 37° C. water bath for 2 h. An aliquot of the incubation mixture was transferred to acetonitrile at 0, 0.5, 1, 1.5 and 2 h, respectively. Samples were then mixed and centrifuged. Supernatants were used for HPLC-MS/MS analysis using selected reaction monitoring, and peak areas were recorded for each analyte. The HPLC conditions consisted of a binary LC pump with autosampler, a C18 column (2×20 mm), and gradient elution. The area of precursor compound remaining after each time points relative to the amount remaining at time zero, expressed as percent, is calculated. Subsequently, the half-life (t1/2) was estimated from the slope of the initial linear range of the logarithmic curve of the compound remaining (%) versus time, assuming first order kinetics.

[3] = test system: cryopreserved human hepatocytes; test: Metabolite identification in cryopreserved hepatocytes; type: in vitro ADME; details: 120 min, HPLC-MS
Experimental: Principal Phase I (oxidative) and Phase II (conjugative) metabolites have been detected and characterized following previously described procedure (Obach R. S. et al. J. Pharmacol. Exp. Ther. 1997, 283, 46-58). Briefly, the test compound 2 ([…]) was incubated at 37° C. in cryopreserved human hepatocytes (0.7 million cells/mL) for 120 min. Samples were taken at time 0 and the end of the incubation (2 h), respectively. A control sample (no test compound added) was also prepared and incubated for the same period of time. After the reaction was stopped by addition of acetonitrile, the supernatants were subjected to HPLC-MS analysis. Separation of analytes was achieved using Acquity HSS T3 column (100×2.1 mm, 1.8 μm, Waters). The sample solutions-supernatants (5 μL) were injected and eluted at a flow rate of 0.5 mL min-1, using a linear gradient of mobile phase A (0.1% formic acid in water) and mobile phase B (0.1% formic acid in MeCN). The gradient for mobile phase B was: 0-1.0 min, 5%; 1.0-7.0 min, 5%-80%; 7.0-7.5 min, 80%; 7.5-8.0 min, 80%-5%; 8.0-10.0 min, 5%. […] Retention times and the respective MS and MS/MS spectra of the species detected in the incubated sample and not in time-zero or blank sample were identified and recorded.

For `COCCN(CC1CCCN(Cc2ccccc2)C1)S(=O)(=O)c1ccc2ccccc2c1` (racemic) [(±)-N-((1-benzylpiperidin-3-yl)methyl)-N-(2-methoxyethyl)naphthalene-2-sulfonamide], the LD50 (HepG2 cells) was 58.67 µM, the LD50 (SH-SY5Y cells) was 31.40 µM and the “Neuroprotective effect against Aβ(1-42) toxicity” value ([1]; compound 1-10 μM) was “clear dose-response neuroprotective effect”. The “Effect on Aβ(1-42)-induced cell death” value ([1]; compound at 10 μM) was “reversed Aβ(1-42)-induced cell death”, the half-life at 1 μM ([2]; 0.7 million viable cells per mL, read-out: In vitro half-life in cryopreserved hepatocytes) was 54 min and the hepatocyte CLint at 1 μM ([2]; read-out: Hepatocyte clearance (Clint)) was 18.2 µL/min/1e6 cells. For the same compound, the half-life at 1 μM (Plasma stability) was greater than 120 min and the Possible metabolites [3] was “N-debenzylated, demethylated, and a demethylated+glucoronide products”.
